Source: the supplement of paper PMC10307832

Experiments:
Assay in all cases: relative viability (nuclei count vs DMSO), 5 days (fraction); higher = more cells survive
Wnt-C59 + Dasatinib = compound: CC1=NC=CC(=C1)C2=CC=C(C=C2)CC(=O)NC3=CC=C(C=C3)C4=CN=CC=C4 [Wnt-C59] + Cc1nc(Nc2ncc(C(=O)Nc3c(C)cccc3Cl)s2)cc(N2CCN(CCO)CC2)n1 [Dasatinib] (partner 0.075 µM)
Summary of the method: (§1)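 A single step with final 0.05% Triton X-100, 1% formaldehyde and 1 ug/ml Hoechst fixed the cells and stained nuclei 5 days after treatment. Lung cancer cell lines in 1536-well plates had been treated by pin tool the day after seeding with one drug alone or a fixed anchor-drug dose plus five library-drug doses (not always all listed) in √10 steps, and nuclei were counted on 4× images. Relative viability is the ratio of nuclei in treated wells to nuclei in vehicle wells, taken as the median of duplicate plates.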

Lapatinib + Trametinib = compound: CS(=O)(=O)CCNCc1ccc(-c2ccc3ncnc(Nc4ccc(OCc5cccc(F)c5)c(Cl)c4)c3c2)o1 [Lapatinib] + CC(=O)Nc1cccc(-n2c(=O)n(C3CC3)c(=O)c3c(Nc4ccc(I)cc4F)n(C)c(=O)c(C)c32)c1 [Trametinib] (partner 0.02 µM)
Summary of the method: as §1

Lapatinib + Navitoclax = compound: CS(=O)(=O)CCNCc1ccc(-c2ccc3ncnc(Nc4ccc(OCc5cccc(F)c5)c(Cl)c4)c3c2)o1 [Lapatinib] + CC1(C)CCC(c2ccc(Cl)cc2)=C(CN2CCN(c3ccc(C(=O)NS(=O)(=O)c4ccc(N[C@H](CCN5CCOCC5)CSc5ccccc5)c(S(=O)(=O)C(F)(F)F)c4)cc3)CC2)C1 [Navitoclax] (partner 0.5 µM)
Summary of the method: as §1

Lapatinib + Alpelisib = compound: CS(=O)(=O)CCNCc1ccc(-c2ccc3ncnc(Nc4ccc(OCc5cccc(F)c5)c(Cl)c4)c3c2)o1 [Lapatinib] + Cc1nc(NC(=O)N2CCC[C@H]2C(N)=O)sc1-c1ccnc(C(C)(C)C(F)(F)F)c1 [Alpelisib] (partner 2 µM)
Summary of the method: as §1

Cell Line | relative viability (Wnt-C59 + Dasatinib; first compound 0.001 µM) | relative viability (Wnt-C59 + Dasatinib; first compound 0.01 µM) | relative viability (Wnt-C59 + Dasatinib; first compound 0.03162 µM) | relative viability (Wnt-C59 + Dasatinib; first compound 0.1 µM) | relative viability (Lapatinib + Trametinib; first compound 0.2 µM) | relative viability (Lapatinib + Trametinib; first compound 0.6325 µM) | relative viability (Lapatinib + Trametinib; first compound 2 µM) | relative viability (Lapatinib + Navitoclax; first compound 0.02 µM) | relative viability (Lapatinib + Navitoclax; first compound 0.06325 µM) | relative viability (Lapatinib + Navitoclax; first compound 0.2 µM) | relative viability (Lapatinib + Navitoclax; first compound 0.6325 µM) | relative viability (Lapatinib + Navitoclax; first compound 2 µM) | relative viability (Lapatinib + Alpelisib; first compound 0.02 µM) | relative viability (Lapatinib + Alpelisib; first compound 0.06325 µM) | relative viability (Lapatinib + Alpelisib; first compound 0.2 µM) | relative viability (Lapatinib + Alpelisib; first compound 0.6325 µM) | relative viability (Lapatinib + Alpelisib; first compound 2 µM) | relative viability (Lapatinib + Trametinib; first compound 0.02 µM) | relative viability (Lapatinib + Trametinib; first compound 0.06325 µM)
NCI-H1792 | 0.753 | 0.771 | 0.992 | 0.718 | 0.402 | 0.457 | 0.352 | 0.615 | 0.589 | 0.52 | 0.586 | 0.645 | 0.723 | 0.633 | 0.75 | 0.666 | 0.576 | – | –
NCI-H2126 | 0.658 | 0.592 | 0.647 | 0.61 | 0.467 | 0.533 | 0.402 | – | 0.799 | 0.764 | 0.806 | 0.739 | – | 0.587 | 0.668 | 0.677 | 0.549 | 0.536 | 0.417
NCI-H2170 | 0.549 | 0.354 | 0.601 | 0.555 | 0.792 | 0.683 | 0.238 | 0.546 | 0.393 | 0.287 | 0.218 | 0.184 | 0.76 | 0.551 | 0.477 | 0.376 | 0.21 | 0.874 | 0.82
LOU-NH91 | 0.6 | 0.529 | 0.523 | 0.57 | 0.726 | 0.709 | 0.665 | 0.555 | 0.558 | 0.502 | 0.541 | 0.324 | 0.661 | 0.557 | 0.533 | 0.508 | 0.472 | 0.787 | 0.684
NCI-H2023 | 0.563 | 0.538 | 0.628 | 0.333 | 0.429 | 0.433 | 0.328 | 0.95 | 0.885 | 0.894 | 1 | 0.77 | 0.53 | 0.576 | 0.528 | 0.553 | 0.378 | – | 0.397
LC-2-ad | 0.696 | 0.73 | 0.53 | 0.559 | 0.906 | 0.864 | 0.837 | – | 0.415 | 0.446 | 0.394 | 0.264 | – | 0.796 | 0.856 | 0.877 | 0.73 | – | 0.804
NCI-H1355 | 0.725 | 0.533 | 0.711 | 0.617 | 0.37 | 0.387 | 0.261 | – | 0.861 | 0.824 | 0.906 | 0.498 | – | 0.621 | 0.734 | 0.762 | 0.416 | 0.406 | 0.349
NCI-H2347 | 0.35 | 0.295 | 0.327 | 0.306 | 0.278 | 0.302 | 0.281 | 0.548 | 0.807 | 0.826 | 0.731 | 0.769 | 0.901 | 1.01 | 1.07 | 0.844 | 1.02 | 0.298 | 0.236
NCI-H441 | 0.56 | 0.637 | 0.615 | 0.298 | 0.398 | 0.392 | 0.417 | – | 0.223 | 0.94 | 0.514 | 0.604 | – | 0.65 | 0.68 | 0.617 | 0.799 | 0.429 | –
